24 compounds from US11524934B2, “Phenylamine compounds” (PI INDUSTRIES LTD., priority 2017, dated 2022) can be followed below.

The pest or weed control is how far the test organism was held down.

The test system of one experiment is Phakopsora pachyrhizi. Put plainly: Phakopsora pachyrhizi test in soybean (in vivo on plants), preventive activity. The following applies: preventive spray on soybean plants, inoculated one day after treatment, disease severity rated vs untreated check. On the procedure:
Example 8 (In Vivo on Plants): Phakopsora pachyrhizi Test in Soybean
Compounds were dissolved in 2% DMSO/Acetone & then mixed with water to the calibrated spray volume of 50 ml and poured into the spray bottles for further applications.
To test the preventive activity of compounds, healthy young soybean plants raised in the greenhouse were sprayed with active compound preparation at the stated application rates inside the spray cabinets using hallowcone nozzles. One day after treatment, the plants were inoculated with spore suspension containing 2.1×10^6 Phakopsora pachyrhizi inoculum. The inoculated plants were then kept in greenhouse chamber at 25° C. temperature & 90% Relative Humidity for disease expression.
A visual assessment of compound's performance was carried out by rating the disease severity (0-100% scale) on treated plants on 3, 7, 10 & 15 days after application. Efficacy (% control) of the compounds was calculated by comparing the disease rating in the treatment with the one of the untreated control. The sprayed plants were also assessed for compound's plant compatibility by recording symptoms like necrosis, chlorosis & stunting.

The next experiment concerns Alternaria solani. Put plainly: Alternaria solani (early blight of tomato/potato) in vitro test, radial growth on Potato Dextrose Agar. The note with it: 168 h, read-out: control.
The next experiment relates to Septoria lycopersici. Put plainly: Septoria lycopersici (Leaf spot of tomato) in vitro test, radial growth on Potato Dextrose Agar. The note with it: 168 h, read-out: control.
A further experiment relates to Rhizoctonia solani. The note with it: 168 h, read-out: control.
In another experiment the test system is Pyricularia oryzae. Put plainly: microbe, parasite or virus in culture. Format: cell-based. The following applies: 168 h, read-out: control.
Another experiment relates to Botrytis cinerea. Put plainly: Botrytis cinerea (Gray mold) in vitro test, radial growth on Potato Dextrose Agar. The note with it: 168 h, read-out: control.

In the case of `Cc1cc(C(=O)COc2cccc(Cl)c2)c(C)cc1N=CN1CCOCC1` [Compound 40, 2-(3-chlorophenoxy)-1-(2,5-dimethyl-4-((morpholinomethylene)amino)phenyl)ethan-1-one], the pest or weed control at 500 ppm with Phakopsora pachyrhizi is over 90%. In addition, the inhibition of growth at 300 ppm in the experiment with Alternaria solani is over 70%.
For `Cc1cc(C(=O)COc2cccc(Cl)c2)c(C)cc1N=CNC#N` [Compound 46, N′-(4-(2-(3-chlorophenoxy)acetyl)-2,5-dimethylphenyl)-N-cyanoformimidamide], in the experiment on Phakopsora pachyrhizi, the pest or weed control at 500 ppm was over 90%.
`Cc1cc(C(=O)COc2cccc(Cl)c2)c(C)cc1N=CN(C)C(C)C` [Compound 42, N′-(4-(2-(3-chlorophenoxy)acetyl)-2,5-dimethylphenyl)-N-isopropyl-N-methylformimidamide]: the pest or weed control at 500 ppm with Phakopsora pachyrhizi is over 90%. In addition, the inhibition of growth at 300 ppm in the experiment on Septoria lycopersici, with Rhizoctonia solani, with Alternaria solani and in the experiment on Pyricularia oryzae was over 70% in each case.
`CCN(C)C=Nc1cc(C)c(C(=O)COc2ccccc2F)cc1Cl` [Compound 44, N′-(2-chloro-4-(2-(2-fluorophenoxy)acetyl)-5-methylphenyl)-N-ethyl-N-methylformimidamide]: the pest or weed control at 500 ppm with Phakopsora pachyrhizi is over 90%.
For the compound `CCN(C)C=Nc1cc(C)c(C(=O)COc2cc(C)ccc2C)cc1C` [Compound 95, N′-(4-(2-(2,5-dimethylphenoxy)acetyl)-2,5-dimethylphenyl)-N-ethyl-N-methylformimidamide], the inhibition of growth at 300 ppm with Botrytis cinerea, in the experiment with Septoria lycopersici, in the experiment with Rhizoctonia solani, in the experiment on Alternaria solani and in the experiment with Pyricularia oryzae was over 70% throughout.
As to `CCN(C)C=Nc1cc(C)c(C(=O)COc2ccc(OC)cc2)cc1C` [Compound 10, N-ethyl-N′-(4-(2-(4-methoxyphenoxy)acetyl)-2,5-dimethylphenyl)-N-methylformimidamide], the pest or weed control at 500 ppm in the experiment on Phakopsora pachyrhizi was over 90%. The inhibition of growth at 300 ppm with Septoria lycopersici, in the experiment on Rhizoctonia solani, in the experiment with Alternaria solani and in the experiment on Pyricularia oryzae was over 70% each time.
Regarding `CCN(C)C=Nc1cc(C)c(C(=O)COc2ccc(F)cc2)cc1Cl` [Compound 45, N′-(2-chloro-4-(2-(4-fluorophenoxy)acetyl)-5-methylphenyl)-N-ethyl-N-methylformimidamide], the pest or weed control at 500 ppm in the experiment on Phakopsora pachyrhizi is over 90%.
The compound `Cc1cc(C(=O)COc2cccc(Cl)c2)c(C)cc1N=CN1CCCCC1` [Compound 41, 2-(3-chlorophenoxy)-1-(2,5-dimethyl-4-((piperidin-1-ylmethylene)amino)phenyl)ethan-1-one] came in with a pest or weed control at 500 ppm with Phakopsora pachyrhizi of over 90%. The inhibition of growth at 300 ppm in the experiment with Rhizoctonia solani and in the experiment with Alternaria solani was over 70% each time.
`CCN(C)C=Nc1cc(C)c(C(=O)COc2ccc(Cl)cc2Cl)cc1C` [Compound 94, N′-(4-(2-(2,4-dichlorophenoxy)acetyl)-2,5-dimethylphenyl)-N-ethyl-N-methylformimidamide]: the inhibition of growth at 300 ppm with Botrytis cinerea, with Septoria lycopersici, in the experiment on Rhizoctonia solani, with Alternaria solani and with Pyricularia oryzae was over 70% in each case.
Regarding `CCN(C)C=Nc1cc(C)c(C(=O)COc2ccccc2Br)cc1C` [Compound 34, N′-(4-(2-(2-bromophenoxy)acetyl)-2,5-dimethylphenyl)-N-ethyl-N-methylformimidamide], the inhibition of growth at 300 ppm with Septoria lycopersici, with Rhizoctonia solani, with Alternaria solani and in the experiment with Pyricularia oryzae was over 70% throughout.
As for `CCN(C)C=Nc1cc(C)c(C(=O)COc2ccccc2Br)cc1Cl` [Compound 31, N′-(4-(2-(2-bromophenoxy)acetyl)-2-chloro-5-methylphenyl)-N-ethyl-N-methylformimidamide], the inhibition of growth at 300 ppm with Septoria lycopersici, with Rhizoctonia solani, in the experiment with Alternaria solani and in the experiment on Pyricularia oryzae was over 70% each time.
Regarding `Cc1ccc(SCC(=O)c2cc(C)c(N=CN3CCOCC3)cc2C)cc1C` [Compound 49, 1-(2,5-dimethyl-4-((morpholinomethylene)amino)phenyl)-2-((3,4-dimethylphenyl)thio)ethan-1-one], the pest or weed control at 500 ppm in the experiment on Phakopsora pachyrhizi is over 90%.
`CCN(C)C=Nc1cc(C)c(C(=O)COc2ccc(Cl)cc2)cc1C` [Compound 16, N′-(4-(2-(4-chlorophenoxy)acetyl)-2,5-dimethylphenyl)-N-ethyl-N-methylformimidamide]: the inhibition of growth at 300 ppm with Septoria lycopersici, in the experiment on Alternaria solani and in the experiment on Pyricularia oryzae was over 70% throughout.
Consider `CCN(C)C=Nc1cc(C)c(C(=O)COc2cccc(C)c2)cc1Cl` [Compound 26, N′-(2-chloro-5-methyl-4-(2-(m-tolyloxy)acetyl)phenyl)-N-ethyl-N-methylformimidamide], for which, in the experiment on Phakopsora pachyrhizi, the pest or weed control at 500 ppm is over 90%. Besides, the inhibition of growth at 300 ppm in the experiment on Alternaria solani is over 70%.
In the experiment on Phakopsora pachyrhizi, `CCN(C)C=Nc1cc(C)c(C(=O)CSc2ccc(Cl)cc2)cc1Cl` [Compound 38, N′-(2-chloro-4-(2-((4-chlorophenyl)thio)acetyl)-5-methylphenyl)-N-ethyl-N-methylformimidamide] gave a pest or weed control at 500 ppm of over 90%.
In the experiment on Phakopsora pachyrhizi, `Cc1ccc(SCC(=O)c2cc(C)c(N=CN(C)C(C)C)cc2C)cc1C` [Compound 47, N′-(4-(2-((3,4-dimethylphenyl)thio)acetyl)-2,5-dimethylphenyl)-N-isopropyl-N-methylformimidamide] gave a pest or weed control at 500 ppm of over 90%. Moreover, the inhibition of growth at 300 ppm with Rhizoctonia solani, with Alternaria solani and in the experiment on Pyricularia oryzae was over 70% throughout.
For the compound `CCN(C)C=Nc1cc(C)c(C(=O)CSc2ccc(Cl)c(Cl)c2)cc1Cl` [Compound 50, N′-(2-chloro-4-(2-((3,4-dichlorophenyl)thio)acetyl)-5-methylphenyl)-N-ethyl-N-methylformimidamide], in the experiment with Phakopsora pachyrhizi, the pest or weed control at 500 ppm is over 90%.
In the experiment on Phakopsora pachyrhizi, `C=CCN(C)C=Nc1cc(C)c(C(=O)COc2cccc(Cl)c2)cc1C` [Compound 43, N-allyl-N′-(4-(2-(3-chlorophenoxy)acetyl)-2,5-dimethylphenyl)-N-methylformimidamide] yielded a pest or weed control at 500 ppm of over 90%.
Compound `CCN(C)C=Nc1cc(C)c(C(=O)CSc2ccccc2Br)cc1Cl` [Compound 39, N′-(4-(2-((2-bromophenyl)thio)acetyl)-2-chloro-5-methylphenyl)-N-ethyl-N-methylformimidamide] registered a pest or weed control at 500 ppm in the experiment on Phakopsora pachyrhizi of over 90%.
Regarding `CCN(C)C=Nc1cc(C)c(C(=O)COc2cc(Cl)ccc2C)cc1C` [Compound 96, N′-(4-(2-(5-chloro-2-methylphenoxy)acetyl)-2,5-dimethylphenyl)-N-ethyl-N-methylformimidamide], the inhibition of growth at 300 ppm in the experiment with Botrytis cinerea, with Septoria lycopersici, in the experiment on Rhizoctonia solani, with Alternaria solani and in the experiment on Pyricularia oryzae was over 70% in each case.
For the compound `CCN(C)C=Nc1cc(C)c(C(=O)COc2ccc(F)cc2)cc1C` [Compound 33, N-ethyl-N′-(4-(2-(4-fluorophenoxy)acetyl)-2,5-dimethylphenyl)-N-methylformimidamide], the inhibition of growth at 300 ppm with Septoria lycopersici, in the experiment with Rhizoctonia solani, in the experiment on Alternaria solani and in the experiment with Pyricularia oryzae was over 70% throughout.
As for `CCN(C)C=Nc1cc(C)c(C(=O)CSc2ccccc2Br)cc1C` [Compound 30, N′-(4-(2-((2-bromophenyl)thio)acetyl)-2,5-dimethylphenyl)-N-ethyl-N-methylformimidamide], the inhibition of growth at 300 ppm with Botrytis cinerea, in the experiment on Septoria lycopersici, with Rhizoctonia solani, in the experiment on Alternaria solani and in the experiment on Pyricularia oryzae was over 70% throughout.
With `CCN(C)C=Nc1cc(C)c(C(=O)COc2ccc(C)cc2Cl)cc1C` [Compound 93, N′-(4-(2-(2-chloro-4-methylphenoxy)acetyl)-2,5-dimethylphenyl)-N-ethyl-N-methylformimidamide], the inhibition of growth at 300 ppm in the experiment with Botrytis cinerea, with Septoria lycopersici, in the experiment with Rhizoctonia solani, with Alternaria solani and in the experiment with Pyricularia oryzae was over 70% each time.
In turn, `C=CCN(C)C=Nc1cc(C)c(C(=O)CSc2ccc(C)c(C)c2)cc1C` [Compound 48, N-allyl-N′-(4-(2-((3,4-dimethylphenyl)thio)acetyl)-2,5-dimethylphenyl)-N-methylformimidamide] gave a pest or weed control at 500 ppm with Phakopsora pachyrhizi of over 90%.
